Test results reported in article PMC3423427, “Design and Synthesis of Potent N-Acylethanolamine-hydrolyzing Acid Amidase (NAAA) Inhibitor as Anti-Inflammatory Compounds” (PLoS ONE, 2012).

What was measured:
NAAA [1] = target: T1, NAAA (Rattus norvegicus, UniProt Q5KTC7)
T1 sequence (Q5KTC7 34-362): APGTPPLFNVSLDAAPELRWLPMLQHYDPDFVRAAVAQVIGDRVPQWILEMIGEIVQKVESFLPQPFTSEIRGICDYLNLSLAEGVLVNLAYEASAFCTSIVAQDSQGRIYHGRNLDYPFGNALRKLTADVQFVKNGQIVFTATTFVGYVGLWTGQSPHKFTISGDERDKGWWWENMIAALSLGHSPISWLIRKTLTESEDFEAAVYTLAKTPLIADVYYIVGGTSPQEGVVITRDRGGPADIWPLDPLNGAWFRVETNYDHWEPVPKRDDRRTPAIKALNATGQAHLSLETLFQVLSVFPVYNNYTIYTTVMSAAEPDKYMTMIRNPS
Experimental: HEK293-rNAAA or HEK293-rFAAH cells were harvested, washed with PBS, sonicated in 20 mM Tris-HCl (pH 7.5) containing 0.32 M sucrose, and centrifuged at 800 × g for 15 min at 4°C. The supernatants were collected and protein concentrations were measured by BCA protein assay kit (Pierce, Shanghai, China). NAAA activity was measured by incubating 30 µg recombinant rNAAA protein with testing compound at 37°C for 30 min in 0.2 mL phosphate buffer (50 mM, pH 5.0) containing 0.1% Triton X-100, 3 mM DTT, and 25 µM heptadecenoylethanolamide as substrate. […] The reactions were terminated by adding 0.2 mL methanol containing 1 nmol heptadecanoic acid and analyzed in LC/MS.

RAW264.7 cells = test system: RAW264.7 cells
Experimental: (§1) HEK293 cells overexpressing rat NAAA (HEK293-rNAAA) and rat FAAH (HEK293-rFAAH) were kind gifts from Dr. Daniele Piomelli in University of California, Irvine. The stable-overexpressing cell lines were maintained in Dulbecco’s Modified Eagle Medium (DMEM, Hyclone, Beijing, China) supplemented with 10% FBS (Gibco®, Shanghai, China) containing 0.3 mg/mL G418. Mouse macrophage cells RAW264.7 and Human Embryonic Kidney cell HEK293 cells were purchased from American Type Culture Collection (ATCC, Beijing, China) and maintained in DMEM supplemented with 10% FBS in humidified 5% CO2 atmosphere at 37°C. RAW264.7 cells were plated and cultured overnight until 80% confluence and then incubated with a series of compound 16 of different concentrations for 30 min before challenged by LPS.
The column temperature was set at 40°C.

IL-6 = details: RAW264.7, 0.5 µg/ml LPS
Experimental: as §1
(§2) Total RNA was extracted from RAW264.7 cells with TRIzol (Invitrogen) and quantified by spectrophotometer (Beckman coulter, Shanghai, China). cDNA was synthesized from 1 µg of total RNA by using ReverTra Ace qPCR RT Kit (TOYOBO, Shanghai, China) following the manufacturer’s instructions. Real-time quantitative PCR was performed in a 7300 Real Time PCR System (Applied Biosystems, Shanghai, China) and RNA levels were normalized using glyceraldehyde-3-phosphate dehydrogenase (GAPDH) as an internal standard.

iNOS = details: RAW264.7, 0.5 µg/ml LPS
Experimental: as §1, §2

[2] = 24 hr
Experimental: To evaluate the biological and chemical stability of compound 16, we determined the degradation products of compound 16 in different chemical environments, as well as in rat plasma. First, chemical hydrolysis was evaluated at various pHs, i.e. pH 1.0 and pH 13.0. The hydrolytic product, biphenylpropanoic acid, if any, was detected by thin layer chromatography (TLC) after 24 hr incubation with 0.1 M HCl (pH 1.0) or […] (pH 13.0). […] Second, to test whether compound 16 was sensitive to thermal challenge, we placed compound 16 in 80°C incubator for 24 hr.

NAAA [3] = target: T1, NAAA; test: Rapid dilution NAAA assay; format: biochemical; set-up: made in house; host or cells: HEK293 cells stably overexpressing rat NAAA (HEK293-rNAAA), a gift from D. Piomelli; crude 800 x g supernatant of sonicated cells; details: pre-incubation 10-fold IC50, 100-fold dilution
Experimental: Rapid dilution assay was performed as previously described. Briefly, samples containing 100-fold concentrated rNAAA recombinant protein were pre-incubated with 10-fold the IC50-equivalent concentration of compound 16 or vehicle (1% DMSO) for 10 min at 37°C. Samples were then diluted 100-fold with assay buffer containing substrate to initiate reactions, and the time course of product formation was measured by LC/MS.

rat NAAA = target: T2, rat NAAA (Rattus norvegicus, UniProt Q5KTC7); test: NAAA enzymatic assay (recombinant rNAAA protein, LC/MS); format: biochemical; details: IC50 ± S.E.M., triplicate; 25 µM heptadecenoylethanolamide, pH 5.0;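 further: reaction product measured by LC/MS using positive APCI ionization with MRM monitoring, quantified from chromatographic peak areas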
T2 construct: made in house; host or cells: HEK293 cells stably overexpressing rat NAAA (HEK293-rNAAA), a gift from D. Piomelli; crude 800 x g supernatant of sonicated cells
T2 sequence (Q5KTC7 34-362): T1 sequence (Q5KTC7 34-362)
Experimental: HEK293-rNAAA or HEK293-rFAAH cells were harvested, washed with PBS, sonicated in 20 mM Tris-HCl (pH 7.5) containing 0.32 M sucrose, and centrifuged at 800 × g for 15 min at 4°C. The supernatants were collected and protein concentrations were measured by BCA protein assay kit (Pierce, Shanghai, China). […] The reactions were terminated by adding 0.2 mL methanol containing 1 nmol heptadecanoic acid and analyzed in LC/MS.
We use an Agilent 1200-LC system coupled to a 3200Q TRAP-MS detector equipped with an ESI interface (Agilent Technologies, Shanghai, China). […] The column temperature was set at 40°C. […] Mass spectrometer (MS) detection was ionized by positive-ion atmospheric pressure chemical ionization mode (APCI^+) and monitored in MRM mode. […] Quantifications were calculated at chromatographic peak areas by using Analyst® version 1.4.1. software (Applied Biosystems).

NAAA [4] = target: T1, NAAA; test: NAAA activity in intact HEK293 cells overexpressing NAAA; format: cell-based; details: 10 µM, 8 hr
Experimental: as §1

NAAA [5] = target: T1, NAAA; test: Dialysis NAAA assay; format: biochemical; set-up: made in house; host or cells: HEK293 cells stably overexpressing rat NAAA (HEK293-rNAAA), a gift from D. Piomelli; crude 800 x g supernatant of sonicated cells; details: 8 hr dialysis
Experimental: Dialysis assay was performed using Slide-A-Lyzer Dialysis Cassettes (Pierce, Shanghai, China). Briefly, 2 mg NAAA protein was incubated with compound 16 or dimethyl sulfoxide (DMSO) in 4 mL Tris-HCl buffer (50 mM, pH 5.0) for 10 minutes at 37°C. Mixed reaction solution was loaded onto a dialysis cartridge using a syringe and incubated in Tris-HCl buffer (50 mM, pH 5.0) at 4°C for 8 h. The samples were removed from Dialysis Cassettes by syringes for NAAA enzymatic assay.

O=C(CCc1ccc(-c2ccccc2)cc1)N1CCCC1 [Compound 16, 1–(2–Biphenyl–4–yl)ethyl–carbonyl pyrrolidine]
Vmax of NAAA activity (NAAA [1]; 5µM compound 16, […], n = 3): 5854 ± 511 pmol/min/mg | mode of NAAA inhibition (NAAA [1]; rapid dilution, dialysis and kinetic analysis): reversible and competitive | Km (NAAA [1]; read-out: Michaelis-Menten constant Km, 5µM compound 16, […]): 328 ± 98 µM | Ki (NAAA [1]; read-out: dissociation constant Ki, calculated from Km (inhibitor) = Km (1+[I]/Ki)): 5.65 µM | cellular PEA levels, LPS+compound (RAW264.7 cells; RAW264.7, 0.5 µg/mL LPS, LPS alone 0.67±0.12): 1.41±0.17 pmol/mg protein | cellular PEA levels, compound alone (RAW264.7 cells; RAW264.7, no LPS, vehicle 1.23±0.07): 1.30±0.23 pmol/mg protein | LPS-induced IL-6 mRNA expression (IL-6): reversed dose-dependently | LPS-induced iNOS mRNA expression (iNOS): reversed dose-dependently | stability, 0.1M HCl ([2]; 0.1 M HCl (pH 1.0)): 100% | hydrolytic product on TLC, acidic medium ([2]; 0.1 M HCl (pH 1.0), TLC EtOAc/PE 1:2): no detectable biphenylpropanoic acid | hydrolytic product on TLC, basic medium ([2]; 0.1 M NaCl (pH 13.0) as printed, TLC EtOAc/PE 1:2): no detectable biphenylpropanoic acid | stability, 80°C ([2]; 80°C incubator): 100% | degradation products on TLC after thermal challenge ([2]; 80°C, TLC EtOAc/PE 1:2): no trace of biphenylpropanoic acid or other corresponding residuals | stability, 0.1NaOH ([2]; basic medium (pH 13.0)): 100% | NAAA activity after rapid dilution of inhibitor-NAAA complex (NAAA [3]): almost completely restored the NAAA activity | IC50 (rat NAAA): 2.12 ± 0.41 µM | inhibition on NAAA activity in intact cells (NAAA [4]): more than 60% | NAAA activity after dialysis of inhibitor-NAAA complex (NAAA [5]): almost completely restored the NAAA activity
